Experimental data taken from patent publication US8165823B2, “Pamps, pathogen associated molecular patterns” (Novartis AG, priority 2005, dated 2012).

Tests used:
[1] = system: human monocytic cell line THP-1; test: Cytokine production by THP-1 cells after peptide stimulation; assay type: cell-based; conditions: for Cytokine production IL-1β / Cytokine production IL-8 / Cytokine production TNF-α: culture supernatant after 18 hours with peptide
Description: (§1) For the assay, the human cells used were cultured at 1 million cells/ml in 96-well plates with the peptides in complete RPMI medium with 5% FBS. After culture for 18 hours at 37° C. and 5% CO2, the culture supernatants were measured for the cytokines generated by the cells with an Upstate multiplex cytokine kit.

[2] = system: cells in vitro; conditions: cited from earlier work
[3] = system: primary human peripheral blood mononuclear cells (hPBMC); test: Cytokine production by primary hPBMC after peptide stimulation; assay type: cell-based
Description: The possible combinations of sequences included PDCGLR, PDCGLK, PDCGMR, and PDCGMK. […] Therefore, the specific peptide sequence PDCGLR, which was identified as a bacterial signature found commonly in bacterial proteins but not in Drosophila, is recognised by the human immune system as a PAMP.
as §1

[4] = hPBMC #1643, culture supernatant after 18 hours with peptide

Question: For PDCGLK, which “Cytokine production IL-1β” value [1] is on record?
Answer: 1.33 pg/mL

Question: What about the “Cytokine production IL-8” value [1] of the same substance?
Answer: 24.29 pg/mL

Question: And the “Cytokine production TNF-α” value [1]?
Answer: <1 pg/mL

Question: Which “Cytokine production IL-1β” value [1] does the source give for PDCGMR here?
Answer: 1.61 pg/mL

Question: What about the “Cytokine production IL-8” value [1] of the same substance?
Answer: 25.71 pg/mL

Question: What about the “Cytokine production TNF-α” value [1] of the same substance?
Answer: <1 pg/mL

Question: Which “Induction of cytokine production from cells in vitro” value [2] does the source give for “ALTTE [5-mer peptide from a bacterial fimbriae protein]” here?
Answer: shown to induce cytokine production from cells in vitro

Question: For PDCGLR, which “Adjuvant activity, as measured by the specific production of cytokines (IL1-β, IL-8 and TNFα)” value [1] is on record?
Answer: adjuvant activity was observed

Question: What about the “Cytokine production IL-1β” value [1] of the same substance?
Answer: 11.32 pg/mL

Question: And the “Cytokine production IL-8” value [1]?
Answer: 171.11 pg/mL

Question: And the “Cytokine production TNF-α” value [1]?
Answer: 4.42 pg/mL

Question: What about the “Cytokine production (IL-6 and TNFα)” value ([3]; hPBMC) of the same substance?
Answer: cytokine production (IL-6 and TNFα) was also demonstrated

Question: And the “Cytokine production IL-6” value [3, 4]?
Answer: 31.42 pg/mL

Question: What about the “Cytokine production TNF-α” value [3, 4] of the same substance?
Answer: 3.6 pg/mL

Question: With PDCGMK as the substance, how does the “Cytokine production IL-1β” value [1] read?
Answer: 1.59 pg/mL

Question: What about the “Cytokine production IL-8” value [1] of the same substance?
Answer: 19.28 pg/mL

Question: And the “Cytokine production TNF-α” value [1]?
Answer: <1 pg/mL
